The values below come from patent US20260008758A1, “LINEAR DIPEPTIDYL PEPTIDASE 1 INHIBITORS AND USES THEREOF” (Insmed Incorporated, priority 2024, published 2026).

Usually inhibition stands for the relative decrease from the control value, in per cent.

In one experiment the target is DPP1 in HL-60 cells (Homo sapiens (Human), UniProt P53634). Description: DPP1 cell single-point percent inhibition testing (HL-60 cells, H-Gly-Phe-AFC substrate). In kind it is cell-based. Conditions: read-out: DPP1 cell % inhibition @ 5 nM, 5 nM compound, 100 μM H-Gly-Phe-AFC, 60 min pre-incubation at 37° C. How it is done:
HL-60 cells (ATCC; Manassas, VA) were maintained in RPMI-1640 supplemented with 20% heat-inactivated FBS and 1× Antibiotic Antimycotic (Cytiva; Marlborough, MA). Media was changed every three to four days and cells were not allowed to exceed 1×10^6 cells per mL. Prior to assay, cells were collected by centrifugation at 500 rcf for 3 minutes, resuspended in RPMI (with no additional supplements) and counted. Cells were diluted in RPMI to a concentration of 5×10^5 live cells per mL and transferred to black 96-well plates for assay, 60 μL per well. Test articles were diluted to 25 nM in RPMI plus 0.5% DMSO, and 20 μL was added to each assay well. Compound was allowed to pre-incubate with cells with gentle shaking at 100 rpm for 60 minutes at 37° C. in a cell culture incubator maintained at 5% CO2, after which 20 μL of 500 μM H-Gly-Phe-AFC cell-permeable substrate (MP Biomedicals; Solon, OH) in RPMI was added to each well, giving final compound concentration of 5 nM, a final substrate concentration of 100 μM and a final DMSO concentration of 0.1%. Plates were returned to the incubator with shaking at 100 rpm for 30 minutes, after which fluorescence was measured at Excitation/Emission 400/505 nm. Percent Inhibition was calculated from RFU values by first subtracting background values (wells in which RPMI was substituted for cells) from each well, and then subtracting background-subtracted RFU derived from wells that received a final concentration of 10 μM brensocatib. This value represents the non-specific substrate cleavage from the HL-60 cells, and the remaining RFU should theoretically be solely the contribution of DPP1 enzyme activity. The final percent inhibition value was calculated for each test article based on remaining RFU compared to RFU from wells that received only vehicle control.

Another experiment deals with human DPP1 enzyme (Homo sapiens (Human), UniProt P53634). Briefly: Human DPP1 enzyme single-point percent inhibition testing (HL-60 lysate, H-Gly-Arg-AMC substrate). Type of experiment: biochemical. The note with it: read-out: human DPP1 enzyme % inhibition @ 10 nM, 10 nM compound, 400 μM H-Gly-Arg-AMC, 10 min pre-incubation at 37° C. How it is done: A crude lysate of HL-60 cells (ATCC; Manassas, VA) was used as a source of human DPP1 enzyme in the assay. Lysate was prepared in 1% Triton X-100 in PBS at a concentration of 20,000 live cells per […] of lysis buffer and was centrifuged at 16,000 rcf for 10 minutes at 4° C., after which supernatant was collected and flash-frozen in liquid nitrogen. Test articles were applied to human DPP1 enzyme in Assay Buffer (25 mM MES pH 6.0, 50 mM NaCl, 5 mM DTT) in a total reaction volume of 125 μL. 25 μL of compound diluted to 50 nM in Assay Buffer plus 5% DMSO was first added to 50 μL of HL-60 lysate diluted to contain a DPP1 enzyme concentration of roughly 1 ng/μL and allowed to pre-incubate for 10 minutes at 37° C. after which 50 μL of 1000 μM H-Gly-Arg-AMC substrate (Bachem; St. Torrance, CA) was added, giving final compound concentration of 10 nM, a final substrate concentration of 400 μM and a final DMSO concentration of 1%. Substrate cleavage was measured for 90 minutes at 37° C., with fluorescence at Excitation/Emission 350/450 nm measured every 5 minutes. DPP1 concentration was interpolated based on its activity relative to a standard curve of activated human recombinant DPP1 enzyme. Percent inhibition at 10 nM was calculated for each test article based on remaining DPP1 activity compared to enzyme activity in wells that received only vehicle control.
Chain of human DPP1 enzyme (P53634 25-134): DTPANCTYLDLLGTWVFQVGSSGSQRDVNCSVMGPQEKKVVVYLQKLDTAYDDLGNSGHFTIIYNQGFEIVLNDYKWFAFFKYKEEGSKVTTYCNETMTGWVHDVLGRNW
Chain of human DPP1 enzyme (P53634 231-394): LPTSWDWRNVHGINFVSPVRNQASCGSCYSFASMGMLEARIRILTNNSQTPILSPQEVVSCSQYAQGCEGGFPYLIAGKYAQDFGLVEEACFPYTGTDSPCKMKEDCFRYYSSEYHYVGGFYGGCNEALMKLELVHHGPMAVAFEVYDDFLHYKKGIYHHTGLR
Chain of human DPP1 enzyme (P53634 395-463): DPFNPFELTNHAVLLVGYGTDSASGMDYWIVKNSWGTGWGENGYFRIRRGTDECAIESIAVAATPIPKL

Chain of DPP1 in HL-60 cells (P53634 25-134): as the sequence (P53634 25-134) above
Chain of DPP1 in HL-60 cells (P53634 231-394): as the sequence (P53634 231-394) above
Chain of DPP1 in HL-60 cells (P53634 395-463): as the sequence (P53634 395-463) above

As for `CN(C)C[C@H](O)C(=O)N[C@H](C#N)Cc1ccc(-c2ccc3c(c2)C2(CC3)CCN(C)CC2)cc1F` [Compound 355], the inhibition at 0.005 µM at DPP1 in HL-60 cells was at most 76.5%. Further, on human DPP1 enzyme, the inhibition at 0.01 µM was at least 66.7%.
On the same counts, the results for `CN(C)C[C@H](O)C(=O)N[C@H](C#N)Cc1ccc(-c2ccc3c(c2)C2(CCCN(C)C2)C(=O)N3C)cc1F` (stereo partly drawn) [Compound 356] are 76.5 to 93.9% and 40 to 66.7%.
For `CN(C)CCn1c(=O)oc2ccc(-c3ccc(C[C@@H](C#N)NC(=O)[C@@H](O)CN(C)C)c(F)c3)cc21` [Compound 357] the same measures were at most 76.5% and at least 66.7%.
On the same counts, the results for `Cc1cn2cc(-c3ccc(C[C@@H](C#N)NC(=O)[C@@H](O)CN(C)C)c(F)c3)cc2c(C)n1` [Compound 358] are at most 76.5% and at most 40%.
Consider `CN(C)C[C@H](O)C(=O)N[C@H](C#N)Cc1ccc(-c2ccc3c(c2)C2(CN(C)C2)OC3=O)cc1F` [Compound 359], for which, on DPP1 in HL-60 cells, the inhibition at 0.005 µM is at most 76.5%. On human DPP1 enzyme, the inhibition at 0.01 µM was 40 to 66.7%.
As to `CCN1C(=O)Cc2ccc(-c3ccc(C[C@@H](C#N)NC(=O)[C@@H](O)CN(C)C)c(F)c3)cc21` [Compound 360], the inhibition at 0.005 µM on DPP1 in HL-60 cells is 76.5 to 93.9%. Moreover, the inhibition at 0.01 µM on human DPP1 enzyme lay in the range of 40 to 66.7%.
On to `CN(C)C[C@H](O)C(=O)N[C@H](C#N)Cc1ccc(-c2ccc3c(c2)C2(CCN(C)C2)OC3=O)cc1F` (stereo partly drawn) [Compound 361], for which the inhibition at 0.005 µM at DPP1 in HL-60 cells is at most 76.5%. Also, at human DPP1 enzyme, the inhibition at 0.01 µM lay in the range of 40 to 66.7%.
For `CN(C)C[C@H](O)C(=O)N[C@H](C#N)Cc1ccc(-c2ccc3cnn(C4CCN(C)CC4)c3c2)cc1F` [Compound 362] the same measures were at most 76.5% and at least 66.7%.
On the same counts, the results for `CN(C)C[C@H](O)C(=O)N[C@H](C#N)Cc1ccc(-c2ccc3c(c2)C2(CCN(C4COC4)CC2)OC3)cc1F` [Compound 363] are at most 76.5% and 40 to 66.7%.
On the same counts, the results for `CN(C)C[C@H](O)C(=O)N[C@H](C#N)Cc1ccc(-c2ccc3oc(=O)n(CCN4CCOCC4)c3c2)cc1F` [Compound 364] are at most 76.5% and 40 to 66.7%.
`CN(C)C[C@H](O)C(=O)N[C@H](C#N)Cc1ccc(-c2ccc(CN3CCN(C)CC3)cc2)cc1F` [Compound 365]: the inhibition at 0.005 µM at DPP1 in HL-60 cells was at most 76.5%. For the same compound, the inhibition at 0.01 µM at human DPP1 enzyme was at most 40%.
On the same counts, the results for `CN(C)C[C@H](O)C(=O)N[C@H](C#N)Cc1ccc(-c2ccc3oc(=O)n(C)c3c2)cc1F` [Compound 366] are 76.5 to 93.9% and 40 to 66.7%.
Consider `COCCN(C)CCn1c(=O)oc2ccc(-c3ccc(C[C@@H](C#N)NC(=O)[C@@H](O)CN(C)C)c(F)c3)cc21` [Compound 368], for which the inhibition at 0.005 µM on DPP1 in HL-60 cells was at most 76.5%. Further, on human DPP1 enzyme, the inhibition at 0.01 µM was at least 66.7%.
On the same counts, the results for `CN(C)C[C@H](O)C(=O)N[C@H](C#N)Cc1ccc(-c2ccc3cnn(C)c3c2)cc1` [Compound 370] are at most 76.5% and at most 40%.
On the same counts, the results for `CN(C)C[C@H](O)C(=O)N[C@H](C#N)Cc1ccc(-c2ccc3nnn(C)c3c2)cc1` [Compound 371] are at most 76.5% and at most 40%.
For the compound `CN(C)C[C@H](O)C(=O)N[C@H](C#N)Cc1ccc(-c2cnc3c(n2)CCCC3)cc1` [Compound 372], the inhibition at 0.005 µM on DPP1 in HL-60 cells is at most 76.5%. Moreover, the inhibition at 0.01 µM on human DPP1 enzyme was at most 40%.
On the same counts, the results for `CN(C)C[C@H](O)C(=O)N[C@H](C#N)Cc1ccc(-c2ccc3cnn(C)c3c2)cc1F` [Compound 374] are at most 76.5% and at most 40%.
On the same counts, the results for `CN(C)C[C@H](O)C(=O)N[C@H](C#N)Cc1ccc(-c2cnc3c(n2)CCCC3)cc1F` [Compound 376] are at most 76.5% and at most 40%.
